pIC50: −log10 of the molar value.
Legend:
IDH1 R132H = IDH1 R132H (Homo sapiens (Human), UniProt O75874, R132H); test: In vitro assay for IDH1m (R132H) inhibitors, NADPH depletion with resazurin/resorufin detection; assay type: biochemical; details: IDH1 R132H enzyme, 50 minutes at room temperature; read-out: IDH R132H IC50
Protocol: Assays were conducted in a volume of 76 μl assay buffer (150 mM NaCl, 10 mM MgCl2, 20 mM Tris pH 7.5, 0.03% bovine serum albumin) as follows in a standard 384-well plate: To 25 ul of substrate mix (8 uM NADPH, 2 mM aKG), 1 μl of test compound was added in DMSO. The plate was centrifuged briefly, and then 25 μl of enzyme mix was added (0.2 μg/ml IDH1 R132H) followed by a brief centrifugation and shake at 100 RPM. The reaction was incubated for 50 minutes at room temperature, then 25 μl of detection mix (30 μM resazurin, […]) was added and the mixture further incubated for 5 minutes at room temperature. The conversion of resazurin to resorufin was detected by fluorescent spectroscopy at Ex544 Em590 c/o 590.
Representative compounds of formula (I) set forth in Tables 1 and 2 were tested in this assay and the results are set forth below in Table 4.

IDH2 R140Q = IDH2 R140Q (Homo sapiens (Human), UniProt P48735, R140Q); test: IDH2 R140Q enzymatic cofactor depletion assay (diaphorase/resazurin); assay type: biochemical; details: IDH2 R140Q enzyme, one hour preincubation with compound, one hour reaction; read-out: Enz R140Q
Summary of the method: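 Enzyme preincubated with compound 1 h at room temperature, then reaction started with 50 μM NADPH and 6.3 mM α-KG and run 1 h at room temperature. Remaining NADPH measured by diaphorase (36 μg/ml)/resazurin (60 μM) stop mix, fluorescence read at Ex544/Em590 after 1 min.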

IDH1 R132H, sequence (O75874 whole entry R132H): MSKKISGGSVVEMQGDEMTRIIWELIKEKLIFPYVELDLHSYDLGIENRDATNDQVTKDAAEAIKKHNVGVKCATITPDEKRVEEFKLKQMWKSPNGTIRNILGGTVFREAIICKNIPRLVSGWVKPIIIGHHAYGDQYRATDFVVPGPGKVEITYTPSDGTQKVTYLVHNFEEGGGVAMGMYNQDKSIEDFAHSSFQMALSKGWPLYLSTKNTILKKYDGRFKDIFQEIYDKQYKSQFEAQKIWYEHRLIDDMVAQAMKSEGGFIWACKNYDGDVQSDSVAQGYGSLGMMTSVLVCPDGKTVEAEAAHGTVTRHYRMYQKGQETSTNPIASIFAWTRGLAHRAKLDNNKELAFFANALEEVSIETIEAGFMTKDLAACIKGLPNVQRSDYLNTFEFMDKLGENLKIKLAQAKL
IDH2 R140Q, sequence (P48735 40-452 R140Q): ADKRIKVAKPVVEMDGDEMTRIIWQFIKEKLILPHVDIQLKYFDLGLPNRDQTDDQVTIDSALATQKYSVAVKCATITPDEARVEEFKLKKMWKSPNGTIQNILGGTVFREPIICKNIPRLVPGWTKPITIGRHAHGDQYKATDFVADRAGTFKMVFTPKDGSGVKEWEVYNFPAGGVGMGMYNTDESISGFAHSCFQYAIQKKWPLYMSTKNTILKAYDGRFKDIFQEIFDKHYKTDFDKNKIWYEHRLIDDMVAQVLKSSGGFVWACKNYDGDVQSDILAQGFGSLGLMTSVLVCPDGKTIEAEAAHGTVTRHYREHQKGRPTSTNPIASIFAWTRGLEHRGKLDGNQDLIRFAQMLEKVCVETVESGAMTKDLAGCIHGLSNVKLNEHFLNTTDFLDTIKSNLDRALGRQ

| Compound | pIC50 (IDH1 R132H) | pIC50 (IDH2 R140Q) |
| --- | --- | --- |
| Cc1ccc(NC(=O)Nc2cccc(C(F)(F)F)c2)cc1S(=O)(=O)Nc1ccc(O)cc1 [Compound 304, N-(4-hydroxyphenyl)-2-methyl-5-(3-(3-(trifluoromethyl)phenyl)ureido)benzenesulfonamide] | ≥ 6.00 | – |
| Cc1ccc(NC(=O)Nc2ccc(C(C)(C)C)cc2)cc1S(=O)(=O)Nc1ccc(Cl)cc1 [Compound 256] | 5.00 to 6.00 | – |
| Cc1ccc(NC(=O)Nc2ccccc2Cl)cc1S(=O)(=O)Nc1ccc(Cl)cc1 [Compound 214] | 5.00 to 6.00 | – |
| COc1cc([N+](=O)[O-])ccc1NC(=O)Nc1ccc(C)c(S(=O)(=O)Nc2ccc(Cl)cc2)c1 [Compound 272] | 5.00 to 6.00 | – |
| Cc1cc(Cl)ccc1NC(=O)Nc1ccc(C)c(S(=O)(=O)Nc2ccc(Cl)cc2)c1 [Compound 236] | 5.00 to 6.00 | – |
| Cc1ccc(NC(=O)NCc2cccc(F)c2)cc1S(=O)(=O)Nc1ccc(Cl)cc1 [Compound 279] | 5.00 to 6.00 | – |
| Cc1ccc(NC(=O)Nc2ccc(C)c(S(=O)(=O)Nc3ccc(Cl)cc3)c2)cc1[N+](=O)[O-] [Compound 263] | 5.00 to 6.00 | – |
| Cc1ccc(NC(=O)Nc2cccc(C(F)(F)F)c2)cc1S(=O)(=O)Nc1cccc(F)c1 [Compound 296] | 5.00 to 6.00 | – |
| Cc1ccc(F)cc1NC(=O)Nc1ccc(C)c(S(=O)(=O)Nc2ccc(Cl)cc2)c1 [Compound 241] | 5.00 to 6.00 | – |
| Cc1ccc(NC(=O)Nc2ccc(F)cc2F)cc1S(=O)(=O)Nc1ccc(Cl)cc1 [Compound 229] | 5.00 to 6.00 | – |
| CCc1ccccc1NC(=O)Nc1ccc(C)c(S(=O)(=O)Nc2ccc(Cl)cc2)c1 [Compound 250] | 5.00 to 6.00 | – |
| Cc1ccc(NC(=O)NCc2ccc(Cl)cc2Cl)cc1S(=O)(=O)Nc1ccc(Cl)cc1 [Compound 280] | 5.00 to 6.00 | – |
| Cc1ccc(NC(=O)Nc2cc(C(F)(F)F)ccc2F)cc1S(=O)(=O)Nc1ccc(Cl)cc1 [Compound 233] | 5.00 to 6.00 | – |
| Cc1ccc(NC(=O)Nc2cccc(C(F)(F)F)c2)cc1S(=O)(=O)Nc1cccc(Cl)c1 [Compound 294] | 5.00 to 6.00 | – |
| Cc1ccc(NC(=O)Nc2cccc([N+](=O)[O-])c2)cc1S(=O)(=O)Nc1ccc(Cl)cc1 [Compound 275] | 5.00 to 6.00 | – |
| CCOC(=O)C(C)Oc1ccc(NS(=O)(=O)c2cc(NC(=O)Nc3ccc(C(F)(F)F)cc3)ccc2C)cc1 (centres unmarked) [Compound 328] | 5.00 to 6.00 | – |
| Cc1ccc(NC(=O)Nc2cccc(S(=O)(=O)Nc3ccc(Cl)cc3)c2)cc1S(=O)(=O)Nc1ccccc1 [Compound 335] | 5.00 to 6.00 | – |
| CC(=O)Nc1ccc(NS(=O)(=O)c2cc(NC(=O)Nc3cccc(C(F)(F)F)c3)ccc2C)cc1 [Compound 309] | 5.00 to 6.00 | – |
| Cc1ccc(NC(=O)Nc2cccc(C(F)(F)F)c2)cc1S(=O)(=O)Nc1ccc(OS(C)(=O)=O)cc1 [Compound 306] | 5.00 to 6.00 | – |
| Cc1cc(C)cc(NC(=O)Nc2ccc(C)c(S(=O)(=O)Nc3ccc(Cl)cc3)c2)c1 [Compound 260] | 5.00 to 6.00 | – |
| Cc1ccc(NC(=O)Nc2ccc(Br)cc2Cl)cc1S(=O)(=O)Nc1ccc(Cl)cc1 [Compound 227] | 5.00 to 6.00 | – |
| Cc1ccc(NC(=O)Nc2ccc(C(F)(F)F)cc2)cc1S(=O)(=O)Nc1ccc(OCC(=O)O)cc1 [Compound 326] | 5.00 to 6.00 | – |
| Cc1ccc(NC(=O)Nc2ccc(C)c(S(=O)(=O)Nc3ccc(Cl)cc3)c2)cc1S(=O)(=O)Nc1ccc(Cl)cc1 [Compound 336] | 5.00 to 6.00 | – |
| Cc1ccc(NC(=O)Nc2ccc(F)cc2)cc1S(=O)(=O)Nc1ccc(Cl)cc1 [Compound 219] | 5.00 to 6.00 | – |
| N-(1H-benzo[d]imidazol-7-yl)-2-methyl-5-(3-(3-(trifluoromethyl)phenyl)ureido)benzenesulfonamide [Compound 319] | 5.00 to 6.00 | – |
| Cc1cc(C)cc(NC(=O)Nc2ccc(C)c(S(=O)(=O)Nc3ccccc3)c2)c1 [Compound 210] | 5.00 to 6.00 | – |
| Cc1ccc(NC(=O)Nc2ccc3c(c2)CCO3)cc1S(=O)(=O)Nc1ccc(Cl)cc1 [Compound 291] | 5.00 to 6.00 | – |

| Compound | pIC50 (IDH1 R132H) | pIC50 (IDH2 R140Q) |
| --- | --- | --- |
| Cc1ccc(NC(=O)Nc2ccc(C)c(S(=O)(=O)Nc3ccc(Cl)cc3)c2)cc1C [Compound 259] | 5.00 to 6.00 | – |
| O=C(Nc1cccc(C(F)(F)F)c1)Nc1cc(S(=O)(=O)Nc2ccccc2)ccc1-c1ccsc1 [Compound 351, N-phenyl-4-(thiophen-3-yl)-3-(3-(3-(trifluoromethyl)phenyl)ureido)benzenesulfonamide] | 5.00 to 6.00 | – |
| Cc1ccc(NC(=O)Nc2c(C)cccc2Cl)cc1S(=O)(=O)Nc1ccc(Cl)cc1 [Compound 234] | 5.00 to 6.00 | – |
| Cc1ccc(NC(=O)Nc2ccc(C(F)(F)F)cc2)cc1S(=O)(=O)Nc1ccc(S(C)(=O)=O)cc1 [Compound 331] | 5.00 to 6.00 | – |
| Cc1ccc(NC(=O)Nc2cc(Cl)c(Cl)cc2Cl)cc1S(=O)(=O)Nc1ccc(Cl)cc1 [Compound 246] | 5.00 to 6.00 | – |
| Cc1ccc(NC(=O)Nc2ccc3c(c2)OCO3)cc1S(=O)(=O)Nc1ccc(Cl)cc1 [Compound 292] | 5.00 to 6.00 | – |
| Cc1ccc(NC(=O)Nc2ccc(C(F)(F)F)cc2)cc1S(=O)(=O)Nc1ccc(OS(C)(=O)=O)cc1 [Compound 327] | 5.00 to 6.00 | – |
| Cc1ccc(NC(=O)Nc2cccc(C(F)(F)F)c2)cc1S(=O)(=O)Nc1ccc(-c2nn[nH]n2)cc1 [Compound 322] | 5.00 to 6.00 | – |
| Cc1ccc(NC(=O)NCc2ccc(Br)cc2)cc1S(=O)(=O)Nc1ccc(Cl)cc1 [Compound 277] | 5.00 to 6.00 | – |
| Cc1ccc(NC(=O)Nc2cccc(C(F)(F)F)c2)cc1S(=O)(=O)Nc1ccc(C(=O)O)cc1 [Compound 312] | 5.00 to 6.00 | – |
| O=C(Nc1ccc(F)cc1)Nc1cc(S(=O)(=O)NCC(F)(F)F)ccc1-c1ccccc1 [Compound 39, 2-(3-(4-fluorophenyl)ureido)-N-(2,2,2-trifluoroethyl)-[1,1′-biphenyl]-4-sulfonamide] | – | 6.00 to 7.00 |
| CCNS(=O)(=O)c1ccc(-c2ccsc2)c(NC(=O)Nc2cccc(C(F)(F)F)c2)c1 [Compound 112, N-ethyl-4-(thiophen-3-yl)-3-(3-(3-(trifluoromethyl)phenyl)ureido)benzenesulfonamide] | – | 6.00 to 7.00 |
| O=C(Nc1cccc(C(F)(F)F)c1)Nc1cc(S(=O)(=O)NCC(F)(F)F)cnc1NCC1CC1 [Compound 204, 6-((cyclopropylmethyl)amino)-N-(2,2,2-trifluoroethyl)-5-(3-(3-(trifluoromethyl)phenyl)ureido)pyridine-3-sulfonamide] | – | 5.00 to 6.00 |
| O=C(Nc1cccc(C(F)(F)F)c1)Nc1cc(S(=O)(=O)N2CCOCC2)ccc1-c1ccsc1 [Compound 131, 1-(5-(morpholinosulfonyl)-2-(thiophen-3-yl)phenyl)-3-(3-(trifluoromethyl)phenyl)urea] | – | 6.00 to 7.00 |
| Cc1nccn1-c1ccc(S(=O)(=O)Nc2ccccc2)cc1NC(=O)Nc1cccc(C(F)(F)F)c1 [Compound 343] | – | 5.00 to 6.00 |
| CC(C)C(CO)NS(=O)(=O)c1ccc(-c2ccsc2)c(NC(=O)Nc2cccc(C(F)(F)F)c2)c1 (centres unmarked) [Compound 123, N-(1-hydroxy-3-methylbutan-2-yl)-4-(thiophen-3-yl)-3-(3-(3-(trifluoromethyl)phenyl)ureido)benzene sulfonamide] | – | 6.00 to 7.00 |
| CCOc1ccc(S(=O)(=O)NC2COC2)cc1NC(=O)Nc1cccc(C(F)(F)F)c1 [Compound 180, 4-ethoxy-N-(oxetan-3-yl)-3-(3-(3-(trifluoromethyl)phenyl)ureido)benzenesulfonamide] | – | 6.00 to 7.00 |
| COc1cccc(NC(=O)Nc2cc(S(=O)(=O)Nc3ccccc3)ccc2-c2ccsc2)c1 [Compound 7, 3-(3-(3-methoxyphenyl)ureido)-N-phenyl-4-(thiophen-3-yl)benzenesulfonamide] | – | 6.00 to 7.00 |
| C[S+]([O-])c1cccc(NC(=O)Nc2cc(S(=O)(=O)NCC(F)(F)F)ccc2-c2ccccc2)c1 (centres unmarked) [Compound 83, 2-(3-(3-(methylsulfinyl)phenyl)ureido)-N-(2,2,2-trifluoroethyl)-[1,1′-biphenyl]-4-sulfonamide] | – | 6.00 to 7.00 |
| Cc1cccc(-c2ccc(S(=O)(=O)NC3CCOCC3)cc2NC(=O)Nc2cccc(C(F)(F)F)c2)c1 [Compound 47, 3′-methyl-N-(tetrahydro-2H-pyran-4-yl)-2-(3-(3-(trifluoromethyl)phenyl)ureido)-[1,1′-biphenyl]-4-sulfonamide] | – | 6.00 to 7.00 |
| O=C(Nc1cccc(C(F)(F)F)c1)Nc1cc(S(=O)(=O)Nc2ccccc2)ccc1Nc1ccccc1 [Compound 340, N-phenyl-4-(phenylamino)-3-(3-(3-(trifluoromethyl)phenyl)ureido)benzenesulfonamide] | – | 5.00 to 6.00 |
| CN(C)S(=O)(=O)c1ccc(-c2ccsc2)c(NC(=O)Nc2cccc(C(F)(F)F)c2)c1 [Compound 137] | – | 5.00 to 6.00 |
| CNS(=O)(=O)c1ccc(-c2ccsc2)c(NC(=O)Nc2cccc(C(F)(F)F)c2)c1 [Compound 111, N-methyl-4-(thiophen-3-yl)-3-(3-(3-(trifluoromethyl)phenyl)ureido)benzenesulfonamide] | – | 6.00 to 7.00 |
| O=C(Nc1ccccc1O)Nc1cc(S(=O)(=O)Nc2ccccc2)ccc1-c1ccsc1 [Compound 13] | – | 5.00 to 6.00 |
| O=C(Nc1cccc(Cl)c1)Nc1cc(S(=O)(=O)NCC2CC2)ccc1C1CCCCO1 (centres unmarked) [Compound 163, 3-(3-(3-chlorophenyl)ureido)-N-(cyclopropylmethyl)-4-(tetrahydro-2H-pyran-2-yl)benzenesulfonamide] | – | 6.00 to 7.00 |
| O=C(Nc1cccc(C(F)(F)F)c1)Nc1cc(S(=O)(=O)Nc2ccccc2)ccc1-c1nccs1 [Compound 359] | – | 6.00 to 7.00 |
